Measurements: patent publication US8008094B2, “Methods for analyzing interactions between proteins and sugar chains” (National Institute of Advanced Industrial Science and …, priority 2003, dated 2011)

What was measured:
[1] = tested on: binding of Cy3-ASF to lectin spots; test: Inhibition of lectin-sugar chain interaction on lectin array by competitively inhibiting sugar (Example 1); conditions: Cy3-ASF probe, increasing inhibiting sugar concentration
[2] = tested on: glycoprotein probe derived from mouse brain; test: Lectin array (40 lectins) with crude brain-derived glycoprotein probe plus inhibiting sugar (Example 7); format: binding; conditions: 10 mM inhibiting sugar added to brain-derived glycoprotein probe, FIG. 14C
Description: A glycoprotein sample extracted and purified from mouse liver and a glycoprotein sample extracted and purified from mouse brain were labeled with Cy3 to form probes, then contacted with a lectin array onto which 40 types of lectins were immobilized, and the sugar chain profile of the entire extracted mouse glycoprotein mixture was observed. Next, 10 mM of lactose was added as a competitively inhibiting sugar to the brain-derived glycoprotein probe used in the previous experiment, and the sugar chain profile was observed (FIG. 14C). […] As shown by this experiment, even when using a lectin array for the sugar chain profiling of cruder samples, comparisons and analyses between individuals can be made easier and faster by the combined use of addition experiments that use various inhibiting sugars, and comparison and analysis after narrowing down the obtained data.

**Q.** Which results are given for OC[C@H]1O[C@@H](O[C@H]2[C@H](O)[C@@H](O)C(O)O[C@@H]2CO)[C@H](O)[C@@H](O)[C@H]1O (some centres unmarked) [lactose]?
**A.** fluorescence intensity of the spots in the presence of inhibiting sugar [1]: decreases as the concentration of lactose (competitively inhibiting sugar) increases; change of fluorescence signal pattern due to competitive inhibition [2]: reduction was observed mainly in the signals of lactosamine-recognizing lectins
